Literature values, collected in US10647856B2, “Mold resistant formable cork” (THE BOEING COMPANY, priority 2016, dated 2020).
Converted amounts (≈) assume the structure as drawn.

O=[N+]([O-])c1ccc(O)cc1 [para-nitrophenol]
water solubility: 16 g/L (≈ 115 mM)
